Reference: ChEMBL document CHEMBL1143588, “Novel and potent 17beta-hydroxysteroid dehydrogenase type 1 inhibitors” (J Med Chem, 2005)

Tests used:
Format in all cases: cell-based
[1] = target: T1, 17-beta-hydroxysteroid dehydrogenase type 2 (Homo sapiens) (UniProt P37059); assay: Inhibitory activity against 17 beta hydroxysteroid dehydrogenase type 2 at 10 uM in MDA-MB-231 cells
T1 sequence (whole entry): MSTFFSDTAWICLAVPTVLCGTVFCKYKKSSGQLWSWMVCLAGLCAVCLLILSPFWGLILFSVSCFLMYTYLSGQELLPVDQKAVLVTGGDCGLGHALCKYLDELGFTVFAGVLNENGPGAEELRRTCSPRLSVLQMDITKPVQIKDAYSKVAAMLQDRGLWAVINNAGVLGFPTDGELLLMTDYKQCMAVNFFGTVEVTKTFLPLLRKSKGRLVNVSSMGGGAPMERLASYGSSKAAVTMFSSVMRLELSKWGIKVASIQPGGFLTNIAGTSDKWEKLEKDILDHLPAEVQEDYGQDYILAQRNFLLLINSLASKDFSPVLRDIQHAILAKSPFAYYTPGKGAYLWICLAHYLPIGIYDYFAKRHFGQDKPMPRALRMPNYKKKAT

[2] = target: T2, 17-beta-hydroxysteroid dehydrogenase type 1 (Homo sapiens) (UniProt P14061); assay: Inhibitory activity against 17 beta hydroxysteroid dehydrogenase type 1 at 10 uM in T47D cells
T2 sequence (whole entry): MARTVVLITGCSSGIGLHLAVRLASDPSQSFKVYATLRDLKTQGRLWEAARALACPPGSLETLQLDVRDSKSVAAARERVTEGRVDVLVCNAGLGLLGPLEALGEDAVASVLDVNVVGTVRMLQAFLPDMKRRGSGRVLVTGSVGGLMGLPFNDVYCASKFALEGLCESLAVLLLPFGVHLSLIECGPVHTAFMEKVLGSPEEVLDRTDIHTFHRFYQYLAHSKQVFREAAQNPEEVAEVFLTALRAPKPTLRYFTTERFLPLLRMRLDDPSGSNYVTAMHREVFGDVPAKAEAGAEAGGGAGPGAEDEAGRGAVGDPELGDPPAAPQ

[3] = target: T3, 17-beta-hydroxysteroid dehydrogenase type 1 (Homo sapiens, UniProt P14061); assay: Inhibitory activity against 17 beta hydroxysteroid dehydrogenase type 1 in T47D cells
T3 sequence (P14061 whole entry): T2 sequence (whole entry)

For `C[C@]12CC[C@@H]3c4ccc(O)cc4CCC3[C@@H]1CC(CC(=O)NCc1cccnc1)C2=O` (single isomer, unassigned), the inhibition [1] was 26%, the inhibition [2] was 97% and the IC50 [3] was 37 nM.
`COc1cc2c(cc1O)CCC1[C@@H]2CC[C@]2(C)C(=O)C(CC(=O)NCc3cccnc3)C[C@@H]12` (single isomer, unassigned) was tested, and the inhibition [1] was 0%, the inhibition [2] was 96% and the IC50 [3] was 290 nM.
In the case of `CCc1cc2c(cc1O)CCC1[C@@H]2CC[C@]2(C)C(=O)C(CC(=O)NCc3cccnc3)C[C@@H]12` (single isomer, unassigned), the inhibition [1] is reported as -5%, the inhibition [2] is reported as 99% and the IC50 [3] is reported as 27 nM.
